The source of these data is patent US20220323427A1, “SOMATOSTATIN RECEPTOR TYPE 5 AGONIST FOR THE TREATMENT OF HYPERINSULINISM” (Crinetics Pharmaceuticals, Inc., priority 2021, published 2022).

The structures appear in SMILES notation. Where only a bound is given, the exact number is not on record here.

The subject of one data set is human pancreatic islets. Kind of data set: Insulin secretion in perifused human islets. Format: cell-based. As to conditions: for Effect on glucose- and tolbutamide-stimulated insulin secretion: G16.7 and G16.7+Tolb. The procedure:
The activity of Compound 1 on insulin and glucagon secretion in human pancreatic islets from three healthy adult donors (Prodo Labs, Aliso Viejo, Calif.) was evaluated using a perifusion system that enables dynamic insulin and glucagon measurements from the same islet preparation in response to different stimuli. Specifically, the effects on glucose-stimulated and sulfonylurea (tolbutamide)-stimulated insulin secretion and arginine-stimulated glucagon secretion were investigated and compared to those of a maximally effective concentration of diazoxide. Islets were collected in culture media (Prodo Labs #PIM-S001GMP) supplemented with 5% human AB serum (Prodo Labs #PIM-ABS001GMP), 1% glutamine-glutathione (Prodo Labs #PIM-G001GMP) and an antibiotic cocktail of amphotericin B, ciproflaxin and gentamicin (Prodo Labs #PIM-3X001GMP) and plated at a density of 1500-3000 islet equivalents (IEQ) in 10-cm nontreated tissue culture dishes (Thomas Scientific #1182M59). Islets were cultured at 37° C., 5% CO2 and 95% humidity for 20 h. Dynamic insulin secretion assays were performed using a perifusion system, Peri5 (Biorep Technologies, FL. Glucose (Boston BioProducts #BM-675) at 3 mM (G3) or 16.7 mM (G16.7), or glucose at 16.7 mM plus 100 μM tolbutamide (Sigma #T0891; G16.7+Tolb) were prepared in perifusion buffer, PB=[24 mM NaHCO3 (Fisher Scientific #S233-500), 120 mM NaCl (Spectrum Chemical #S0155), 4.8 mM KCl (Fisher Scientific #P217-500), 2.5 mM CaCl2 (Fisher Scientific #C614-500), 1.2 mM MgCl2 (Sigma #M8266), 10 mM HEPES (Gibco #15630-080) and 0.1% BSA (EMD Millipore #12675-100GM)]. Various concentrations of Compound 1 and diazoxide (Sigma #D9035) were prepared in G16.7 or in G16.7+Tolb. […] Insulin concentration was quantified using the commercially-available Mercodia Insulin ELISA (Mercodia #10-1113-10) kit. […] The optical density of each well was determined at 450 nm in a Tecan M1000Pro (Tecan, Switzerland) multiplate reader. Insulin concentrations were calculated by regression to the standard curve using GraphPad Prism (GraphPad, San Diego, Calif.).

Data set [1] has as its system glyburide-induced hyperinsulinemic hypoglycemia. Kind of data set: Glyburide-induced hyperinsulinemic hypoglycemia model in rats. As to conditions: for Blood glucose levels reached over 5 hours: male rats, 2 h after glyburide, vehicle 94 mg/dL. Format: in vivo, Sprague Dawley rats. The procedure:
Sulfonylurea drugs, such as glyburide, inhibit KATP channels and can be used in rat preclinical models to mimic the disease state of congenital HI patients with KATP channel mutations.
This model of glyburide-induced hyperinsulinemic hypoglycemia was used to assess the pharmacodynamic effects of Compound 1 after a single administration in male and female adult rats and male neonatal rats.
Glyburide was administered to raise insulin levels and induce hypoglycemia in adult male Sprague Dawley rats.
Two hours following glyburide administration, Compound 1 was given by oral gavage and blood glucose was monitored over 5 hours.

Data set [2] can be described thus: Fasting glucose, insulin and C-peptide, MAD. Format: in vivo, human. As to conditions: 30-120 mg QD for 10 days. The source says:
Patients with congenital HI have fasting hypoglycemia due to excess endogenous insulin secretion. Metabolic biomarkers including glucose, insulin, C-peptide, and βhydroxybutyrate will be collected throughout both the SAD and MAD to assess the effect of single and multiple doses of Compound 1.

The next data set concerns major human CYP enzymes. The experiment in a line: CYP inhibition or induction. The class given is in vitro ADME. As to conditions: including CYP2C9 and CYP3A4.
The nature of data set [3]: Exposure in non-fasted male rats. As to conditions: Sprague Dawley, rat, in vivo, oral, 10 mg/kg.
In data set [4] the test system is incretin-induced insulin secretion. Kind of data set: Mixed meal tolerance test (MMTT), MAD. As to conditions: Day 6. Format: in vivo, human. The method, then:
An MMTT will be conducted during the MAD study to assess the impact of Compound 1 on incretin-induced insulin secretion. This will be conducted at baseline (before study drug dosing) in the MAD and at Day 6 at which Compound 1 is predicted to be at steady state.
The purpose of the MMTT is to evaluate the effect of Compound 1 on plasma insulin in response to multiple fuel sources (protein, fat) and to evaluate the impact on incretin-induced insulin secretion. Subjects are to fast at least 10 hours overnight until ingestion of the mixed meal (which is to occur approximately 4 hours after study drug dosing), and then restrict further food intake until the end of the MMTT.
Start the MMTT (i.e., drink the mixed meal) on Day −1 and Day 6 at 4 hours (±30 minutes) post-study drug dosing (i.e., Time 240 minutes) or at nominal time. The total duration of the MMTT will be approximately 3.5 hours from when the first pre-drink blood sample is collected until the last MMTT blood sample is collected. The subject is to be in the supine position during the MMTT, except while consuming the mixed meal. The procedure will be as follows:
Collect pre-drink fasting blood samples for measurement of PG, insulin, C-peptide, glucagon, GIP, and GLP-1 at the timepoints specified in (SOA).
At 4 hours after study drug dosing/Time 240 minutes (or nominal time), the subject is to drink 400 mL (2×200-mL bottles) Resource® Energy (Nestlé Health Science) drink (mixed meal) within ≤10 minutes.
Collect post-drink blood samples for measurement of PG, insulin, C-peptide, glucagon, and GLP-1 at the timepoints specified in (SOA). The subject is to not eat or drink (except for water) until the last MMTT blood sample is collected.

Turning to `C[C@H](NC(=O)c1cnc(C#N)c(-c2cc(F)cc(F)c2)c1N1CC[C@H](N)C1)C(F)(F)F` [Compound 1, 4-[(3S)-3-aminopyrrolidin-1-yl]-6-cyano-5-(3,5-difluorophenyl)-N-[(2S)-1,1,1-trifluoropropan-2-yl]pyridine-3-carboxamide], the “Effect on glucose- and tolbutamide-stimulated insulin secretion” value in the data set on human pancreatic islets (0.1 μM) is “intermediate effect”; in the data set on human pancreatic islets (1 μM, both phases) it was “strongest inhibitory effect”. Besides, in the data set with human pancreatic islets (concentration dependent, islets from three healthy adult donors), the “Insulin secretion in response to 16.7 mM glucose and tolbutamide” value is on record as “inhibited insulin secretion”. For the same molecule, the figures for the “Blood glucose levels reached over 5 hours” value in data set [1] (3 mg/kg oral), in data set [1] (10 mg/kg oral) and in data set [1] (30 mg/kg oral) were “up to 111 mg/dL”, at most 134 mg/dL and at most 203 mg/dL, respectively. The “Blood glucose levels compared to vehicle” value in data set [1] (oral, 3-30 mg/kg) is on record as “dose-dependently increased blood glucose levels”. Besides, the “Minimum effective dose (significant increase in blood glucose AUC over 5 hours)” value in data set [1] (oral, single dose) is listed as 10 mg/kg. Further, the “Fasting insulin and C-peptide levels” value in data set [2] is “suppressed”. The Fasting plasma glucose result in data set [2] is “dose-dependent increase in fasting plasma glucose”. Moreover, in the data set on major human CYP enzymes, the “Potential for inhibition or induction of the major human CYP enzymes” value is “little or no potential for inhibition or induction”. The same molecule displayed an AUC in data set [3] of 590 ng·h/mL. This molecule also returned a Cmax in data set [3] of 45 ng/mL. Besides, the “Increase in plasma glucose AUC in MMTT” value in data set [4] (30 mg QD) is around 30%; in data set [4] (60 mg QD) it was around 30%; in data set [4] (120 mg QD) it was around 60%. For the same molecule, the “Insulin and C-peptide in MMTT” value in data set [4] (30-120 mg QD) is “more sustained suppression of insulin and C-peptide with increasing dose”.

Usually AUC stands for the area under the concentration-time curve, a measure of exposure. A low value points to less exposure. What is called Cmax is the highest concentration seen after dosing.
